Test [1] relates to ubiquitinated proteins in MCF7 cells. The test is described as follows: Western blot of ubiquitinated proteins. It is filed as cell-based, human. The protocol:
The cells were incubated for 9.5 hrs at 37° C. and 5% CO2. After washing with PBS twice, cells were scraped, pelleted and lysed with CytoBuster™ Protein Extraction Reagent \ containing 10 μM compound 8, 10 μM Na3VO4, 0.017 mg/mL Aprotinin, 1 mM PMSF, and 1% Protease Inhibitor Cocktail. Thereafter 30 μg of protein in sample buffer (50 mM Tris-HCl, 2% SDS, 10% Glycerol, 1% β-mercaptoethanol, 12.5 mM EDTA, 0.02% Bromophenol Blue, pH 6.8) that had been boiled at 90° C. for 5 min, was electrophoresed using 6/8% SDS-PAGE, and the protein transferred to a […] PVDF membrane using a BioRad Trans-Blot® SD at 15 V for 17 minutes. The membrane was blocked with 1× casein buffer (Diluted 1:10 in water from casein blocking buffer 10×), and probed with either the polyclonal rabbit anti β-Actin (1:500) or the polyclonal rabbit anti-ubiquitin antibody (1:300), and stained with goat anti-rabbit IgG (H+L) HRP conjugate (1:3000) secondary antibodies. Antibody-recognized bands were visualized by a standard horseradish peroxidase chemiluminescent assay with an ECL kit.
A general note: In western blotting, separated proteins are transferred to a membrane and probed.

In test [2] the target is T1, yeast proteasome yβ2 subunit (Saccharomyces cerevisiae, UniProt P25043+P25451).
T1 construct: measured using 8 μg/mL of purified yCP or iCP
The test is described as follows: Subunit selectivity, purified yeast proteasome yβ2. The class given is biochemical. On the procedure: The compounds were diluted with lysis buffer; 10 μL of the compound-containing solution was added to the test wells at ten times the final concentration. […] The results are reported as the average of at least 3 technical replicates of IC50 values for proteasome inhibition.
Values and standard deviations were calculated from an assay performed in biological triplicate.

The test system of the next test is RPMI 8226 cells. The test is described as follows: MTT assay cytotoxicity RPMI 8226. The following applies: Homo sapiens. On the technique in general: Tetrazolium dyes change colour on reduction, which living cells bring about.

Where two headings read alike, the source gives them in different places.

Procedure for RPMI 8226 cells: The cells were incubated at 37° C. in a humidified atmosphere with 5% CO2.
100 μL of cells were added to each well of a 96 well microtiter plate at a concentration of 4×10^4 cells/mL and incubated overnight to allow proper adhesion. (RPMI 8226 cells were plated at 4×10^5 cells/mL). The cells were treated with the panel of test compounds at a series of concentrations, along with vehicle control DMSO and untreated cells as controls. After 48 h incubation, 20 μL of MTT reagent (3-(4,5-dimethylthiazol-2-yl)-2,5-diphenyltetrazolium bromide) in PBS (5 mg/mL) was added to each well of the plates. The plate was incubated for 2 h at 37° C. For adherent cell lines, the media was removed from each well of the plate and the resulting formazan crystals dissolved in 100 μL of DMSO. For RPMI 8226 cells, 200 ul of DMF/SDS mix (50% DMF. 10% w/v SDS pH<4) was used to solubilize the formazan crystals. Optical density (OD) at 490 nm was measured using a microplate reader. Cells treated with 1 μM phenyl arsine oxide (PAO) served as a positive cell-killing control. Technical replicates of these assays were performed in biological quadruplicate, and the three best values were used for analysis in order to eliminate outliers. Data presented are the average IC50 value calculated from at least 3 technical replicates with the corresponding standard deviation.

Consider `CC[C@H](C)[C@@H]1C(=O)O[C@H]1C(=O)N[C@H](C(=O)N[C@H](C(=O)OCc1ccccc1)C(C)C)C(C)C` [Compound 8, Benzyl ((2R,3S)-3-((S)-sec-butyl)-4-oxooxetane-2-carbonyl)-L-valyl-L-valinate], for which the “accumulation of ubiquitinated proteins” value in test [1] is given as “accumulation of ubiquitinated proteins”. The IC50 (as a rule, the point on the concentration scale where inhibition reaches its midpoint) was 26100 ± 2380 nM in test [2]; 201 ± 82 nM in the test on RPMI 8226 cells (RPMI-8226, 48 h, read-out: Cytotoxicity RPMI 8226 IC50); 192 ± 32.3 nM in the test on RPMI 8226 cells (RPMI-8226, read-out: Cytotoxicity RPMI 8226 IC50).

The values above are taken from patent US11396497B2, “Proteasome inhibitors” (New Mexico Tech University Research Park Corporation, priority 2018, dated 2022).
